Earlier results, collected in patent US6150391A, “Diazabicyclo-octane derivatives as 5-HT receptor ligands” (Merck Sharp & Dohme Ltd., priority 1996, dated 2000).

How the values were obtained:
[1] = therapeutic doses
[2] = tested on: human 5-HT1D.sbsb.α and 5-HT1D.sbsb.β receptor subtypes; conditions: cf WO-A-91/17174, Table 1

SMILES: CNS(=O)(=O)Cc1ccc2[nH]cc(CCN(C)C)c2c1 [sumatriptan]
- adverse events on administration to humans [1]: certain adverse cardiovascular events
- discrimination between the human 5-HT1D.sbsb.α and 5-HT1D.sbsb.β receptor subtypes [2]: barely discriminates
